Data: patent publication US7553864B2, “Compounds for the treatment of inflammatory disorders and microbial diseases” (Schering Corporation, priority 2005, dated 2009)

Test system: LpxC enzyme
Experiment: LpxC enzyme assay (RapidFire high-throughput mass spectrometry)
Type: biochemical
Procedure: The standard LpxC assay consists of 0.2 nM LpxC enzyme, 1.0 μM UDP-3-O—(R-3-hydroxymyristoyl)-N-acetylglucosamine, and test compound, in assay buffer and 2% DMSO. Assay buffer is comprised of 25 mM HEPES, pH 7.3, 150 mM NaCl, 2.0 mM DTT, and 0.01% BSA. The enzyme reaction is carried out in a 96-well assay plate, in a final volume of 102 μL. Solutions of test compounds are prepared in 100% DMSO. Reaction additions, in order, are (1) 2.0 μL compound solution, (2) 80 μL of assay buffer, (3) 10 μL of 10 μM UDP-3-O—(R-3-hydroxymyristoyl)-N-acetylglucosamine (in assay buffer) and, (4) 10 μL of LpxC enzyme (20 nM in assay buffer) to initiate the reaction. In positive control reactions, addition (1) has 2.0 μL of 100% DMSO (without compound); these reactions are used as the total signal (TSB) value. Reactions are incubated at room temperature for 60 minutes when 10 μL of 1 N HCl is added to stop the reaction. The plate is shaken by hand for 10 seconds to ensure complete quenching. Assay plates are sealed with foil tape, and stored at −80° C. for 24-48 hr prior to analysis.
The concentrations of substrate and product in the reaction mixtures are determined with BioTrove's proprietary RapidFire™ high-throughput mass spectrometry (HTMS). Assay mixtures are partially purified with reverse phase chromatography, where they are washed with water containing 5 mM ammonium formate and eluted onto the mass spectrometer in 80% acetonitrile, 20% water, and 5 mM ammonium formate. The mass spectrometry peak areas of the substrate and product are measured to determine the concentration of these analytes. The assay signal is the percentage of substrate that is converted to product. Percent inhibition, % I, in test samples is determined from the following equation: […]

[1] = concentration 0.10 (unit not given)
[2] = concentration 0.20 (unit not given)
[3] = concentration 0.39 (unit not given)
[4] = concentration 0.78 (unit not given)
[5] = concentration 1.56 (unit not given)
[6] = concentration 3.13 (unit not given)
[7] = concentration 6.25 (unit not given)
[8] = concentration 12.50 (unit not given)
[9] = concentration 25 (unit not given)
[10] = concentration 50 (unit not given)

Structure (SMILES)	LpxC enzyme assay rating (% inhibition at indicated concentrations) [1]	LpxC enzyme assay rating (% inhibition at indicated concentrations) [2]	LpxC enzyme assay rating (% inhibition at indicated concentrations) [3]	LpxC enzyme assay rating (% inhibition at indicated concentrations) [4]	LpxC enzyme assay rating (% inhibition at indicated concentrations) [5]	LpxC enzyme assay rating (% inhibition at indicated concentrations) [6]	LpxC enzyme assay rating (% inhibition at indicated concentrations) [7]	LpxC enzyme assay rating (% inhibition at indicated concentrations) [8]	LpxC enzyme assay rating (% inhibition at indicated concentrations) [9]	LpxC enzyme assay rating (% inhibition at indicated concentrations) [10]
CNC(=O)[C@H](O)[C@@H](O)C(=O)Nc1ccc(OCCCN(C)C)cc1 [Compound 40]	C (less than 10% inhibition)	C (less than 10% inhibition)	C (less than 10% inhibition)	B (10-30% inhibition)	C (less than 10% inhibition)	C (less than 10% inhibition)	C (less than 10% inhibition)	B (10-30% inhibition)	B (10-30% inhibition)	C (less than 10% inhibition)
CNC(=O)[C@H](O)[C@@H](O)C(=O)Nc1ccc(-n2cccn2)cc1 [Compound 41]	C (less than 10% inhibition)	C (less than 10% inhibition)	C (less than 10% inhibition)	C (less than 10% inhibition)	B (10-30% inhibition)	B (10-30% inhibition)	B (10-30% inhibition)	C (less than 10% inhibition)	B (10-30% inhibition)	B (10-30% inhibition)
CNC(=O)[C@H](O)[C@@H](O)C(=O)Nc1ccc(-c2cc[nH]n2)cc1 [Compound 42]	C (less than 10% inhibition)	C (less than 10% inhibition)	B (10-30% inhibition)	B (10-30% inhibition)	B (10-30% inhibition)	C (less than 10% inhibition)	B (10-30% inhibition)	B (10-30% inhibition)	B (10-30% inhibition)	C (less than 10% inhibition)
CN(C)C(=O)[C@H](O)[C@@H](O)C(=O)Nc1ccc(C#Cc2ccccc2)cc1 [Compound 43]	C (less than 10% inhibition)	B (10-30% inhibition)	C (less than 10% inhibition)	C (less than 10% inhibition)	B (10-30% inhibition)	B (10-30% inhibition)	B (10-30% inhibition)	A (greater than 30% inhibition)	A (greater than 30% inhibition)	A (greater than 30% inhibition)
CN(C)C(=O)[C@H](O)[C@@H](O)C(=O)n1ccc2cc(C#Cc3ccccc3)ccc21 [Compound 44]	C (less than 10% inhibition)	B (10-30% inhibition)	C (less than 10% inhibition)	C (less than 10% inhibition)	C (less than 10% inhibition)	B (10-30% inhibition)	B (10-30% inhibition)	A (greater than 30% inhibition)	A (greater than 30% inhibition)	A (greater than 30% inhibition)
